Test results from patent publication US11059795B2, “Androgen receptor modulators and methods for their use” (ESSA Pharma, Inc., priority 2018, dated 2021).

Key:
androgen receptor (AR) = molecular target: T1, androgen receptor (AR) (Homo sapiens, UniProt P10275, T878A); assay: Androgen-induced PSA (6.1 kb)-luciferase reporter assay in LNCaP cells; type: cell-based; settings: LNCaP cells transfected with PSA (6.1 kb)-luciferase reporter, R1881 1 nM, 24 h; read-out: PSA-Luc IC50 Range
T1 construct: LNCaP cells were transiently transfected with the PSA (6.1 kb)-luciferase reporter for 24 h; endogenous in cells; host or cells: LNCaP
T1 sequence (P10275 1-920 T878A): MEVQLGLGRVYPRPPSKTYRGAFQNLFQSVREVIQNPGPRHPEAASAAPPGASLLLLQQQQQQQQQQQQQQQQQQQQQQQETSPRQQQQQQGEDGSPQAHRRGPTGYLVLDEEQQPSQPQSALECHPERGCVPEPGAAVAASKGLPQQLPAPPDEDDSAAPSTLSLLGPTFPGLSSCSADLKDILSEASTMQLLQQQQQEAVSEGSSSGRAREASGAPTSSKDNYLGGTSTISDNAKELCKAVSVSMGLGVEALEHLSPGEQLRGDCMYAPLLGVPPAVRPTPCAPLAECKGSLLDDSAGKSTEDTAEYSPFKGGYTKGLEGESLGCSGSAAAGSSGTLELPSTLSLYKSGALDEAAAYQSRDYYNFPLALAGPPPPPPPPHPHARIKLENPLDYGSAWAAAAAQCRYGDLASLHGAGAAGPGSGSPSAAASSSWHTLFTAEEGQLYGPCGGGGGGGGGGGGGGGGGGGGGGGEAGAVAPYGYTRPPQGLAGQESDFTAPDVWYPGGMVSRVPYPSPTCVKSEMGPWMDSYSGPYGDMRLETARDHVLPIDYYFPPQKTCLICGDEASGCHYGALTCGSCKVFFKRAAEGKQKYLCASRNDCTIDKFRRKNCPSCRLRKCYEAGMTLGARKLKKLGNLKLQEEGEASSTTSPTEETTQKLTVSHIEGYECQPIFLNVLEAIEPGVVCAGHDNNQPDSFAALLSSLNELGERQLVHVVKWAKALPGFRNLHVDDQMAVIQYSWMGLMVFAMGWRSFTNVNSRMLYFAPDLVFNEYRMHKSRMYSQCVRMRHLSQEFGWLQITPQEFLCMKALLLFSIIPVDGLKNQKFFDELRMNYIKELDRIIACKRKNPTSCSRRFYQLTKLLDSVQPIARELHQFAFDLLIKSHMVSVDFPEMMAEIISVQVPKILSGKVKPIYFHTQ
Outline: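 Read-out is firefly luminescence (10 s) in LNCaP lysates, normalized to protein, from an ARE-containing PSA (6.1 kb)-luciferase reporter driven by androgen.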

[1] = Microsomal stability assay, mouse liver microsomes; type: in vitro ADME; settings: mouse, liver microsomes, pH 7.4, mouse liver microsomes, 1 μM compound, 0.5 mg/mL protein, 37° C.; read-out: MLM +30/− NADPH: Clint (μL/min/mg protein)
Method: Microsomal stability assay is a widely used in vitro model to characterize the metabolic conversion by phase I enzymes, such as cytochrome P450 (CYP) enzymes. Since metabolism is known to be highly variable in different species, microsomal stability assay is commonly run in multiple species. Metabolic stability of testing compound can be evaluated using human, rat, mouse, or other animal liver or intestine microsomes to predict intrinsic clearance.
The assay was carried out in 96-well microtiter plates at 37° C. Reaction mixtures (25 μL) contained a final concentration of 1 μM test compound, 0.5 mg/mL liver microsomes protein, and 1 mM NADPH and/or 1 mM UDPGA (with alamethicin) in 100 mM potassium phosphate, pH 7.4 buffer with 3 mM MgCl2. The incubation was done with N=1, but duplicate incubation at each time point can be prepared if necessary. At each of the time points (for example, 0, 15, 30, and 60 minutes), 150 μL of quench solution (100% acetonitrile with 0.1% formic acid) with internal standard was transferred to each well. Besides the zero minute controls, mixtures containing the same components except the NADPH can also be prepared as the negative control. Verapamil was included as a positive control to verify assay performance. Plates were sealed, vortexed, and centrifuged at 4° C. for 15 minutes at 4000 rpm. The supernatant is transferred to fresh plates for LC/MS/MS analysis.
Summarized conditions: [Compound]=[…], [LM]=0.5 mg/mL, [NADPH]=1 mM and/or [UDPGA]=1 mM, Buffer=100 mM Potassium Phosphate, pH 7.4 with 3 mM MgCl2, Time=0, 15, 30, and 60 min, and Temperature=37° C.
(§1) All samples were analyzed on LC/MS/MS using an AB Sciex API 4000 instrument, coupled to a Shimadzu LC-20AD LC Pump system. Analytical samples were separated using a Waters Atlantis T3 dC18 reverse phase HPLC column (20 mm×2.1 mm) at a flow rate of 0.5 mL/min. The mobile phase consisted of 0.1% formic acid in water (solvent A) and 0.1% formic acid in 100% acetonitrile (solvent B).
The extent of metabolism is calculated as the disappearance of the test compound, compared to the 0-min time incubation. Initial rates are calculated for the compound concentration and used to determine half-life (t½) values and subsequently, the intrinsic clearance (Clint). Clint=(0.693)(1/t½ (min))(g of liver/kg of body weight)(mL incubation/mg of microsomal protein)(45 mg of microsomal protein/g of liver weight)

[2] = Hepatocyte stability assay, mouse hepatocytes; type: in vitro ADME; settings: mouse, cryopreserved hepatocytes, 1 μM compound, 0.5 million cells/mL, 37° C., read-out: MH +/− NADPH: Clint (μL/min/million cells)
Source text: The […] of in vitro intrinsic clearance (Clint) for drug candidates in the early discovery stage is common practice in the pharmaceutical industry. The Clint values of drug candidates can help to confirm whether metabolism is the main clearance pathway when it is compared with the total body clearance in vivo. Hepatocytes are among the routinely used in vitro systems for measuring clearance. Hepatocytes have been reported to retain most of the phase I and phase II metabolic activities, and therefore, it is a useful tool to estimate the intrinsic clearance for potential drug candidates.
Metabolic stability of testing compound were be evaluated using human and mouse hepatocytes and can also be use rat, mouse, or other animal hepatocytes to predict intrinsic clearance. Cryopreserved hepatocytes were removed from the liquid nitrogen tank and thawed in a 37° C. water bath. As soon as the cells pulled away from the vial wall, they were decanted into 48 ml of warm HT medium. Cells were centrifuged for four minutes at 420 rpm (50 g). After removing the supernatant, pellet was re-suspended in warm DMEM medium. Cell density was counted by a hemacytometer.
The assay was carried out in 96-well microtiter plates. Compounds were incubated for 0, 60, 120, and 180 minutes at 37° C. with hepatocytes. Reaction mixtures (50 μL) contained a final concentration of 1 μM test compound, 0.5 million cells/mL hepatocytes in the DMEM medium. At each of the time points (for example, 0, 1, 2, and 3 hours), 200 μL of quench solution (100% acetonitrile with 0.1% formic acid) with internal standard was transferred to each well. Midazolam was included as a positive control to verify assay performance. Plates were sealed and centrifuged at 4° C. for 15 minutes at 4000 rpm. The supernatant is transferred to fresh plates for LC/MS/MS analysis.
Summarized conditions (customizable): [Compound]=[…], Positive control: midazolam and/or naloxone, [Hepatocyte]=0.5 million cells/Ml, time=0, 60, 120, and 180 min, t=37° C.
as §1
The extent of metabolism was calculated as the disappearance of the test compound, compared to the 0-min control reaction incubations. Initial rates were calculated for the compound concentration and used to determine t½ values and subsequently, the intrinsic clearance, Clint. Clint=(0.693)(1/t½(min))(mL incubation/million cells)

[3] = Microsomal stability assay, human liver microsomes; type: in vitro ADME; settings: pH 7.4, 1 μM compound, 0.5 mg/mL protein, 37° C., read-out: HLM +/− NADPH: Clint (μL/min/mg protein)
Outline: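 Compound at 1 μM was incubated at 37° C with 0.5 mg/mL liver microsomes and 1 mM NADPH and/or 1 mM UDPGA (with alamethicin) in 100 mM potassium phosphate pH 7.4, 3 mM MgCl2. Samples were taken at 0, 15, 30 and 60 min and measured by LC/MS/MS. t½ came from compound loss relative to 0 min, and Clint was scaled with 45 mg microsomal protein/g liver.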

SMILES	IC50 (androgen receptor (AR))	microsomal CLint at 1 μM [1]	hepatocyte CLint at 1 μM [2]	microsomal CLint at 1 μM [3]
COc1ncc(COc2ccc(C(C)(C)c3cc(Cl)c(OCCCl)c(C#N)c3)cc2)o1 [Compound A112, 3-chloro-2-(2-chloroethoxy)-5-(2-(4-((2-methoxyoxazol-5-yl)methoxy)phenyl)propan-2-yl)benzonitrile]	< 500 nM	12 to 48 µL/min/mg	4 to 18 µL/min/1e6 cells	< 12 µL/min/mg
CC(Oc1ccc(C(C)(C)c2cc(Cl)c(OCCCl)c(C#N)c2)cc1)c1coc(S(C)(=O)=O)n1 (centres unmarked) [Compound A85]	< 500 nM	≥ 48 µL/min/mg	≥ 18 µL/min/1e6 cells	< 12 µL/min/mg
CC(Oc1ccc(C(C)(C)c2cc(Cl)c(OCCCl)c(C#N)c2)cc1)c1ncoc1S(C)(=O)=O (centres unmarked) [Compound A79]	< 500 nM	≥ 48 µL/min/mg	≥ 18 µL/min/1e6 cells	< 12 µL/min/mg
CC(Oc1ccc(C(C)(C)c2cc(Cl)c(OCCCl)c(C#N)c2)cc1)c1coc(NS(C)(=O)=O)n1 (centres unmarked) [Compound A91]	500 to 2000 nM	< 12 µL/min/mg	4 to 18 µL/min/1e6 cells	< 12 µL/min/mg
CC(C)(c1ccc(OCc2ocnc2S(C)(=O)=O)cc1)c1cc(Cl)c(OCC(O)CCl)c(Cl)c1 (centres unmarked) [Compound A117]	500 to 2000 nM	12 to 48 µL/min/mg	≥ 18 µL/min/1e6 cells	12 to 48 µL/min/mg
Cc1cc(C(C)(C)c2ccc(OCc3csc(S(C)(=O)=O)n3)cc2)cc(C#N)c1OCCCl [Compound A86]	< 500 nM	12 to 48 µL/min/mg	≥ 18 µL/min/1e6 cells	12 to 48 µL/min/mg
Cc1cc(C(C)(C)c2ccc(OC(C)c3scnc3S(C)(=O)=O)cc2)cc(C#N)c1OCCCl (centres unmarked) [Compound A70]	< 500 nM	≥ 48 µL/min/mg	4 to 18 µL/min/1e6 cells	12 to 48 µL/min/mg
CC(Oc1ccc(C(C)(C)c2cc(Cl)c(OCCCl)c(C#N)c2)cc1)c1ncc(S(C)(=O)=O)o1 (centres unmarked) [Compound A90]	500 to 2000 nM	≥ 48 µL/min/mg	≥ 18 µL/min/1e6 cells	< 12 µL/min/mg
CC(Oc1ccc(C(C)(C)c2cc(Cl)c(OCCCl)c(C#N)c2)cc1)c1ocnc1S(C)(=O)=O (centres unmarked) [Compound A87]	500 to 2000 nM	12 to 48 µL/min/mg	≥ 18 µL/min/1e6 cells	< 12 µL/min/mg
CSc1nc(C)c(COc2ccc(C(C)(C)c3cc(Cl)c(OCCCl)c(C#N)c3)cc2)o1 [Compound A119]	< 500 nM	≥ 48 µL/min/mg	4 to 18 µL/min/1e6 cells	≥ 48 µL/min/mg

Now from value to molecule:

IC50 (androgen receptor (AR))	microsomal CLint at 1 μM [1]	hepatocyte CLint at 1 μM [2]	microsomal CLint at 1 μM [3]	SMILES
> 2000 nM	< 12 µL/min/mg	4 to 18 µL/min/1e6 cells	≥ 48 µL/min/mg	CC(C)(c1ccc(CNc2ccnc(NS(C)(=O)=O)n2)cc1)c1cc(Cl)c(OCCCl)c(C#N)c1 [Compound A120]
< 500 nM	12 to 48 µL/min/mg	< 4 µL/min/1e6 cells	< 12 µL/min/mg	CC(C)(c1ccc(OCc2nc(NS(C)(=O)=O)cs2)cc1)c1cc(Cl)c(OCCCl)c(C#N)c1 [Compound A137, N-(2-((4-(2-(3-Chloro-4-(2-chloroethoxy)-5-cyanophenyl)propan-2-yl)phenoxy)methyl)thiazol-4-yl)methanesulfonamide]
500 to 2000 nM	≥ 48 µL/min/mg	≥ 18 µL/min/1e6 cells	< 12 µL/min/mg	CC(C)(c1ccc(OCc2nc(NS(C)(=O)=O)nc3c2CCC3)cc1)c1cc(Cl)c(OCCCl)c(C#N)c1 [Compound A202]
> 2000 nM	< 12 µL/min/mg	< 4 µL/min/1e6 cells	< 12 µL/min/mg	CC(C)(c1ccc(OCc2nccc(NS(C)(=O)=O)n2)cc1)c1cc(Cl)c(OCCCl)c(C#N)c1 [Compound A184, N-(2-((4-(2-(3-chloro-4-(2-chloroethoxy)-5-cyanophenyl)propan-2-yl)phenoxy)methyl)pyrimidin-4-yl)methanesulfonamide]
500 to 2000 nM	< 12 µL/min/mg	< 4 µL/min/1e6 cells	< 12 µL/min/mg	CC(C)(c1ccc(OCc2cccc(NS(C)(=O)=O)n2)cc1)c1cc(Cl)c(OCCCl)c(C#N)c1 [Compound A194]
< 500 nM	< 12 µL/min/mg	≥ 18 µL/min/1e6 cells	< 12 µL/min/mg	CC(C)(c1ccc(OCc2cnc(S(C)(=O)=O)s2)cc1)c1cc(Cl)c(OCCCl)c(C#N)c1 [Compound A149]
500 to 2000 nM	< 12 µL/min/mg	< 4 µL/min/1e6 cells	< 12 µL/min/mg	[2H]c1c([2H])c(C(C)(C)c2cc(Cl)c(OCCCl)c(C#N)c2)c([2H])c([2H])c1OCc1ccnc(NS(C)(=O)=O)n1 [Compound A201]
